# Measured values from patent US20240247080A1, “GLP1/GIP/NPY2 RECEPTOR TRIPLE AGONISTS” (Boehringer Ingelheim International GmbH, priority 2022, published 2024).
# Read-outs that look alike come from different tables or passages of the source. Starred links: 1 amine or outer side, 2 acyl side, 3 side chain; linkers in the order of their positions; H or OH if unused. Positions of bridges follow the written chain, without caps; N, C: chain ends. Non-standard residues stand in square brackets, D forms with d. Groups on a side chain read outwards from the residue. Chains are numbered I, II in the order given. No end group written: not given here. *: point of attachment. C20 diacid = O=C(O)CCCCCCCCCCCCCCCCCCC(=O)*; C18 diacid = O=C(O)CCCCCCCCCCCCCCCCC(=O)*; γGlu = O=C(O)[C@H](CCC(=O)[*:2])N[*:1]; εLys = N[C@@H](CCCCN[*:1])C(=O)[*:2]; AEEA = NCCOCCOCC(=O)O; Aib = CC(C)(N)C(=O)O
# Assays:
# Format in all cases: cell-based
# Details in all cases: CreLuc reporter gene assay
# [1] = target: T1, hGLP1R (Homo sapiens, UniProt P43220); test: hGLP1R CreLuc reporter gene assay in 0.5% and 100% plasma
# T1 construct: expressed in transfected cells; host or cells: HEK-293 cells carrying a CRE-luciferase reporter gene
# T1 sequence (P43220 24-463): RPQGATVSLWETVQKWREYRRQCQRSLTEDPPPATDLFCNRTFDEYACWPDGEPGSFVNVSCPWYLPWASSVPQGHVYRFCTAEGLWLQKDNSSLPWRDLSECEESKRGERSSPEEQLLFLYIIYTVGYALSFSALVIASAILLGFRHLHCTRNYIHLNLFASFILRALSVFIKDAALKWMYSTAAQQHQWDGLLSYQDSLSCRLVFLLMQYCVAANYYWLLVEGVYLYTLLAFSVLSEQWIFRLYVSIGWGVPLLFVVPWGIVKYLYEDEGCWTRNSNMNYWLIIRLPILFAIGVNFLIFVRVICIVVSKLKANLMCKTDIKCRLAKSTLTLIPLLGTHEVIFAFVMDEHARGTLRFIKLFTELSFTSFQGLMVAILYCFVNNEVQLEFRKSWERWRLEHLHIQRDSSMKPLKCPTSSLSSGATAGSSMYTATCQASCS
# In short: (§1)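 HEK cells (GLP-1R, NPY2R) or CHO cells (GIPR) carrying a CRE-luciferase reporter, incubated 4 h at 37 °C with peptides in HBSS/20 mM HEPES pH 7.4 plus 0.5% human plasma, or in 100% plasma. Luminescence read; EC50 from 8-point variable-slope sigmoid fits.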
# [2] = target: T2, hGIPR (Homo sapiens, UniProt P48546); test: hGIPR CreLuc reporter gene assay in 0.5% and 100% plasma
# T2 construct: expressed in transfected cells; host or cells: CHO cells carrying a CRE-luciferase reporter gene
# T2 sequence (P48546 22-466): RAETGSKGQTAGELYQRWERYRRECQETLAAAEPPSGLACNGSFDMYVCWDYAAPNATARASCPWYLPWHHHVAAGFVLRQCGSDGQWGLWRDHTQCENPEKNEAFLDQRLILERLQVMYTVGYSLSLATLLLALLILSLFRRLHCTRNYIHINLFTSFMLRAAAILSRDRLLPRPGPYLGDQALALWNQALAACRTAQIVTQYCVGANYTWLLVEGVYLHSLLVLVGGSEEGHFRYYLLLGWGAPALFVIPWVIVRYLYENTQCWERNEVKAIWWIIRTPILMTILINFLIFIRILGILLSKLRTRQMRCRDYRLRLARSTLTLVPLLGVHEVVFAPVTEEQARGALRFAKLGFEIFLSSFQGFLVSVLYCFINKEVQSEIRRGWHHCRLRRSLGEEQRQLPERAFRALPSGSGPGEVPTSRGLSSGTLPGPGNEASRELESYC
# In short: as §1
# [3] = target: T3, hNPY2R (Homo sapiens, UniProt P49146); test: hNPY2R CreLuc reporter gene assay in 0.5% and 100% plasma
# T3 construct: expressed in transfected cells; host or cells: HEK-293 cells carrying a CRE-luciferase reporter gene
# T3 sequence (P49146 1-381): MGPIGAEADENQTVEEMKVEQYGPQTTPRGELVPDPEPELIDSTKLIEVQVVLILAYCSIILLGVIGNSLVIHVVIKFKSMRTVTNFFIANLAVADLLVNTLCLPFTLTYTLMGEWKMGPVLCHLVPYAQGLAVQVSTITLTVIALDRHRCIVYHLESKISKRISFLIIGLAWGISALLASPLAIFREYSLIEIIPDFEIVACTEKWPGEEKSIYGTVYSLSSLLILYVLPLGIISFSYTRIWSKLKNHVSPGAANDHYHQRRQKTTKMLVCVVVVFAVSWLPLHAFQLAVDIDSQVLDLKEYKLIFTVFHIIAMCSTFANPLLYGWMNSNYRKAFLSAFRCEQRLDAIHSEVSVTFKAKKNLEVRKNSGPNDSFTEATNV
# In short: as §1
# [4] = 0.5% human plasma, read-out: hGLP1R 0.5% hP
# [5] = 0.5% human plasma, read-out: hGIPR 0.5% hP
# [6] = 0.5% human plasma, read-out: hNPY2R 0.5% hP
# [7] = 100% human plasma, read-out: hGLP1R 100% hP
# [8] = 100% human plasma, read-out: hGIPR 100% hP
# [9] = 100% human plasma, read-out: hNPY2R 100% hP
Compound,"EC50 [1, 4] [nM]","EC50 [2, 5] [nM]","EC50 [3, 6] [nM]","EC50 [1, 7] [nM]","EC50 [2, 8] [nM]","EC50 [3, 9] [nM]"
"H-Y[Aib]EGTFTSDYSI[Aib]LDKQAQ[Aib]AFVEWLIK([εLys-γGlu-γGlu-γGlu-γGlu-γGlu-γGlu-C20 diacid])GGPSSGASLRHYYNWLTRQRY-NH2 [Compound 128, Y-Aib-E-G-T-F-T-S-D-Y-S-I-Aib-L-D-K-Q-A-Q-Aib-A-F-V-E-W-L-I-K(1,3)-GGPSSGASLRHYYNWLTRQRY-NH2.C20DA-gGlu-gGlu-gGlu-gGlu-gGlu-gGlu-eLys(1,2)]",0.4,0.11,24.8,–,–,–
"H-Y[Aib]EGTFTSDYSI[Aib]LEKQAQ[Aib]EFVEWLIK([AEEA-AEEA-γGlu-γGlu-γGlu-C18 diacid])GGPSSGASLRHYYNWLTRQRY-NH2 [Compound 171, Y-Aib-E-G-T-F-T-S-D-Y-S-I-Aib-L-E-K-Q-A-Q-Aib-E-F-V-E-W-L-I-K(1,3)-GGPSSGASLRHYYNWLTRQRY-NH2.C18DA-gGlu-gGlu-gGlu-OEG-OEG(1,2)]",0.27,0.2,–,4.17,0.83,30.4
"H-Y[Aib]EGTFTSDYSI[Aib]LEKQAQ[Aib]AFVQWLIK([AEEA-AEEA-Glu-Glu-Glu-Glu-C18 diacid])GGPESGASLRHYYNWLTRQRY-NH2 [Compound 52, Y-Aib-E-G-T-F-T-S-D-Y-S-I-Aib-L-E-K-Q-A-Q-Aib-A-F-V-Q-W-L-I-K(1,3)-GGPESGASLRHYYNWLTRQRY-NH2.C18DA-E-E-E-E-OEG-OEG(1,2)]",0.09,0.12,18.7,3.17,0.65,–
"H-Y[Aib]EGTFTSDYSI[Aib]LEKQAQ[Aib]EFVQWLIK([εLys-γGlu-γGlu-γGlu-γGlu-γGlu-C18 diacid])GGPSEGASLRHYYNWLTRQRY-NH2 [Compound 154, Y-Aib-E-G-T-F-T-S-D-Y-S-I-Aib-L-E-K-Q-A-Q-Aib-E-F-V-Q-W-L-I-K(1,3)-GGPSEGASLRHYYNWLTRQRY-NH2.C18DA-gGlu-gGlu-gGlu-gGlu-gGlu-eLys(1,2)]",0.26,0.4,10.7,–,1.07,–
"H-Y[Aib]EGTFTSDYSI[Aib]LEKQAQ[Aib]EFVQWLIK([εLys-γGlu-γGlu-γGlu-γGlu-γGlu-γGlu-C18 diacid])GGPSEGASLRHYYNWLTRQRY-NH2 [Compound 153, Y-Aib-E-G-T-F-T-S-D-Y-S-I-Aib-L-E-K-Q-A-Q-Aib-E-F-V-Q-W-L-I-K(1,3)-GGPSEGASLRHYYNWLTRQRY-NH2.C18DA-gGlu-gGlu-gGlu-gGlu-gGlu-gGlu-eLys(1,2)]",0.25,0.22,18.9,–,1.21,58.5
"H-Y[Aib]EGTFTSDYSI[Aib]LEKQAQ[Aib]AFVEWLIK([γGlu-γGlu-γGlu-γGlu-γGlu-C18 diacid])GGPSSGASLRHYYNWLTRQRY-NH2 [Compound 253, Y-Aib-E-G-T-F-T-S-D-Y-S-I-Aib-L-E-K-Q-A-Q-Aib-A-F-V-E-W-L-I-K(1,3)-GGPSSGASLRHYYNWLTRQRY-NH2.C18DA-gGlu-gGlu-gGlu-gGlu-gGlu(1,2)]",0.08,0.24,13.4,0.74,0.64,–
"Y[Aib]EGTFTSDYSI[Aib]LEKQAQ[Aib]AFVEWLIK([εLys-γGlu-γGlu-γGlu-γGlu-γGlu-C18 diacid])GGPSEGASLRHYYNWLTRQRY-NH2 [Compound 295, Y-Aib-E-G-T-F-T-S-D-Y-S-I-Aib-L-E-K-Q-A-Q-Aib-A-F-V-E-W-L-I-K(1,3)-GGPSEGASLRHYYNWLTRQRY-NH2.C18DA-gGlu-gGlu-glu-gGlu-gGlu-eLys(1,2)]",0.14,0.3,10.9,–,0.98,–

# More lines, in order of falling EC50 [1, 4], values ahead:
"EC50 [1, 4] [nM]","EC50 [2, 5] [nM]","EC50 [3, 6] [nM]","EC50 [1, 7] [nM]","EC50 [2, 8] [nM]","EC50 [3, 9] [nM]",Compound
0.22,0.08,–,–,1.53,78.9,"CC[C@H](C)[C@H](NC(=O)[C@H](CC(C)C)NC(=O)[C@H](Cc1c[nH]c2ccccc12)NC(=O)[C@H](CCC(=O)O)NC(=O)[C@@H](NC(=O)[C@H](Cc1ccccc1)NC(=O)[C@H](C)NC(=O)C(C)(C)NC(=O)[C@H](CCC(N)=O)NC(=O)[C@H](C)NC(=O)[C@H](CCC(N)=O)NC(=O)[C@H](CCCCN)NC(=O)[C@H](CCC(=O)O)NC(=O)[C@H](CC(C)C)NC(=O)C(C)(C)NC(=O)[C@@H](NC(=O)[C@H](CO)NC(=O)[C@H](Cc1ccc(O)cc1)NC(=O)[C@H](CC(=O)O)NC(=O)[C@H](CO)NC(=O)[C@@H](NC(=O)[C@H](Cc1ccccc1)NC(=O)[C@@H](NC(=O)CNC(=O)[C@H](CCC(=O)O)NC(=O)C(C)(C)NC(=O)[C@@H](N)Cc1ccc(O)cc1)[C@@H](C)O)[C@@H](C)O)[C@@H](C)CC)C(C)C)C(=O)N[C@@H](CCCCNC(=O)[C@@H](N)CCCCNC(=O)CC[C@H](NC(=O)CC[C@H](NC(=O)CC[C@H](NC(=O)CC[C@H](NC(=O)CC[C@H](NC(=O)CC[C@H](NC(=O)CCCCCCCCCCCCCCCCCCC(=O)O)C(=O)O)C(=O)O)C(=O)O)C(=O)O)C(=O)O)C(=O)O)C(=O)NCC(=O)NCC(=O)N1CCC[C@H]1C(=O)N[C@@H](CO)C(=O)N[C@@H](CCC(=O)O)C(=O)N1CCC[C@H]1C(=O)N[C@@H](CCC(=O)O)C(=O)N[C@@H](CO)C(=O)N[C@@H](CC(C)C)C(=O)N[C@@H](CCCNC(=N)N)C(=O)N[C@@H](Cc1c[nH]cn1)C(=O)N[C@@H](Cc1ccc(O)cc1)C(=O)N[C@@H](Cc1ccc(O)cc1)C(=O)N[C@@H](CC(N)=O)C(=O)N[C@@H](Cc1c[nH]c2ccccc12)C(=O)N[C@@H](CC(C)C)C(=O)N[C@H](C(=O)N[C@@H](CCCNC(=N)N)C(=O)N[C@@H](CCC(N)=O)C(=O)N[C@@H](CCCNC(=N)N)C(=O)N[C@@H](Cc1ccc(O)cc1)C(N)=O)[C@@H](C)O [Compound 122, Y-Aib-E-G-T-F-T-S-D-Y-S-I-Aib-L-E-K-Q-A-Q-Aib-A-F-V-E-W-L-I-K(1,3)-GGPSEPESLRHYYNWLTRQRY-NH2.C20DA-gGlu-gGlu-gGlu-gGlu-gGlu-gGlu-eLys(1,2)]"
0.14,0.22,–,–,–,45.4,"H-Y[Aib]EGTFTSDYSI[Aib]LEKQAQ[Aib]AFVEWLIK([εLys-γGlu-γGlu-γGlu-γGlu-γGlu-γGlu-C20 diacid])GGPSSGASIRHYYNWLTRQRY-NH2 [Compound 132, Y-Aib-E-G-T-F-T-S-D-Y-S-I-Aib-L-E-K-Q-A-Q-Aib-A-F-V-E-W-L-I-K(1,3)-GGPSSGASIRHYYNWLTRQRY-NH2.C20DA-gGlu-gGlu-gGlu-gGlu-gGlu-gGlu-eLys(1,2)]"
0.13,0.4,12.6,4.24,0.96,–,"H-Y[Aib]EGTFTSDYSI[Aib]LEKQAQ[Aib]AFVEWLIK([εLys-γGlu-γGlu-γGlu-γGlu-γGlu-C18 diacid])GGPESGASLRHYYNWLTRQRY-NH2 [Compound 152, Y-Aib-E-G-T-F-T-S-D-Y-S-I-Aib-L-E-K-Q-A-Q-Aib-A-F-V-E-W-L-I-K(1,3)-GGPESGASLRHYYNWLTRQRY-NH2.C18DA-gGlu-gGlu-gGlu-gGlu-gGlu-eLys(1,2)]"
0.11,0.35,18.2,–,2.94,–,"H-Y[Aib]EGTFTSDYSI[Aib]LERQAQ[Aib]AFVEWLIK([εLys-γGlu-γGlu-γGlu-γGlu-γGlu-γGlu-C20 diacid])GGPSSGASLRHYYNWLTRQRY-NH2 [Compound 131, Y-Aib-E-G-T-F-T-S-D-Y-S-I-Aib-L-E-R-Q-A-Q-Aib-A-F-V-E-W-L-I-K(1,3)-GGPSSGASLRHYYNWLTRQRY-NH2.C20DA-gGlu-gGlu-gGlu-gGlu-gGlu-gGlu-eLys(1,2)]"
0.08,0.13,15.2,–,0.89,–,"I: H-Y[Aib]EGTFTSDYSI[Aib]LEKQAQ[Aib]AFVQWLIKGGPESGASLRHYYNWLTRQRY-NH2 / II: {C18 diacid}-EEEEE[εLys] (amide I:28-II:C) [Compound 63, Y-Aib-E-G-T-F-T-S-D-Y-S-I-Aib-L-E-K-Q-A-Q-Aib-A-F-V-Q-W-L-I-K(1,3)-GGPESGASLRHYYNWLTRQRY-NH2.C18DA-E-E-E-E-E-eLys(1,2)]"
